Test results reported in ChEMBL document CHEMBL3351819, “Clofazimine analogs with antileishmanial and antiplasmodial activity” (Bioorg Med Chem, 2015).
pIC50: −log10 of the molar value.

What was measured:
[1] = tested on: Leishmania infantum; assay: Antileishmanial activity against Leishmania infantum MHOM/TN/80/IPT1 promastigotes assessed as inhibition of parasite growth after 72 hrs by MTT assay; format: functional, organism-based; settings: MHOM/TN/80/IPT1, 72 h
[2] = Selectivity index, ratio of IC50 for HMEC1 to IC50 for Leishmania infantum MHOM/TN/80/IPT1
[3] = tested on: Leishmania tropica; assay: Antileishmanial activity against Leishmania tropica MHOM/IT/2012/ISS3130 promastigotes assessed as inhibition of parasite growth after 72 hrs by MTT assay; format: functional, organism-based; settings: MHOM/IT/2012/ISS3130, 72 h
[4] = Selectivity index, ratio of IC50 for HMEC1 to IC50 for Leishmania tropica MHOM/IT/2012/ISS3130
[5] = tested on: Plasmodium falciparum; assay: Antiplasmodial activity against chloroquine-sensitive Plasmodium falciparum D10 assessed as inhibition of parasite growth after 72 hrs by parasite lactate dehydrogenase assay; format: functional, organism-based; settings: D10, 72 h
[6] = Selectivity index, ratio of IC50 for HMEC1 to IC50 for chloroquine-sensitive Plasmodium falciparum D10
[7] = tested on: Plasmodium falciparum; assay: Antiplasmodial activity against chloroquine-resistant Plasmodium falciparum W2 assessed as inhibition of parasite growth after 72 hrs by parasite lactate dehydrogenase assay; format: functional, organism-based; settings: W2, 72 h
[8] = tested on: Plasmodium falciparum; assay: Resistance index, ratio of IC50 for chloroquine-resistant Plasmodium falciparum W2 to IC50 for chloroquine-sensitive Plasmodium falciparum D10; format: functional
[9] = Selectivity index, ratio of IC50 for HMEC1 to IC50 for chloroquine-resistant Plasmodium falciparum W2
[10] = Cytotoxicity against HMEC1 cells after 72 hrs by MTT assay; format: cell-based; settings: Homo sapiens, HMEC-1, 72 h
[11] = tested on: Leishmania braziliensis; assay: Antileishmanial activity against Leishmania braziliensis MHOM/IT/2006/ISS2848 promastigotes assessed as inhibition of parasite growth after 72 hrs by MTT assay; format: functional, organism-based; settings: MHOM/IT/2006/ISS2848, 72 h
[12] = Selectivity index, ratio of IC50 for HMEC1 to IC50 for Leishmania braziliensis MHOM/IT/2006/ISS2848

| SMILES | pIC50 [1] | Ratio IC50 [2] | pIC50 [3] | Ratio IC50 [4] | pIC50 [5] | Ratio IC50 [6] | pIC50 [7] | Ratio IC50 [8] | Ratio IC50 [9] | pIC50 [10] | pIC50 [11] | Ratio IC50 [12] |
| --- | --- | --- | --- | --- | --- | --- | --- | --- | --- | --- | --- | --- |
| c1ccc(Nc2cc3nc4ccccc4n(-c4ccccc4)c-3c/c2=N/CCC[C@@H]2CCCN3CCCC[C@H]23)cc1 | 5.80 | 2.8 | 5.57 | 1.7 | 6.92 | 36.6 | 7.20 | 0.5 | 71.4 | 5.35 |  |  |
| Cl.c1ccc(Nc2cc3nc4ccccc4n(-c4ccccc4)c-3c/c2=N/CCC23CCCN2CCC3)cc1 | 6.04 | 2.1 | 5.96 | 1.7 | 6.47 | 5.5 | 6.54 | 0.9 | 6.5 | 5.72 |  |  |
| C[N+]12CCCCC1(CCCC/N=c1/cc3n(-c4ccccc4)c4ccccc4nc-3cc1Nc1ccccc1)CCCC2.[I-] (stereo not drawn) | 5.57 | 4.1 | 5.96 | 10.1 | 6.72 | 58.2 | 6.57 | 1.4 | 41 | 4.96 |  |  |
| Cl.Fc1ccc(Nc2cc3nc4ccccc4n(-c4ccc(F)cc4)c-3c/c2=N/CCCCCCC23CCCCN2CCCC3)cc1 | 6.37 | 4.3 | 6.48 | 5.5 | 6.55 | 6.7 | 6.47 | 1.2 | 5.5 | 5.73 |  |  |
| Clc1ccc(Nc2cc3nc4ccccc4n(-c4ccc(Cl)cc4)c-3c/c2=N/C[C@@H]2CCCN3CCCC[C@H]23)cc1 |  |  |  |  | 6.35 |  | 6.02 | 2.1 |  |  |  |  |
| Cc1ccc(Nc2cc3nc4ccccc4n(-c4ccc(C)cc4)c-3c/c2=N/C[C@@H]2CCCN3CCCC[C@H]23)cc1.Cl | 6.34 | 3.4 | 6.33 | 3.3 | 6.68 | 7.5 | 6.40 | 1.9 | 3.9 | 5.80 |  |  |
| CN(C)CCC/N=c1/cc2n(-c3ccc(Cl)cc3)c3ccccc3nc-2cc1Nc1cccnc1 | 6.39 | 11.4 | 6.11 | 6.1 | 6.40 | 11.7 | 6.55 | 0.7 | 16.6 | 5.33 |  |  |
| Cl.Clc1ccc(-n2c3c/c(=N/CCCCC45CCCCN4CCCC5)c(Nc4cccnc4)cc-3nc3ccccc32)cc1 | 6.47 | 6.9 | 6.47 | 6.9 | 6.66 | 10.6 | 6.74 | 0.8 | 12.9 | 5.63 |  |  |
| C[C@@H]1[C@H](O)[C@@H](C)/C=C/C=C/C=C/C=C/C=C/C=C/C=C/[C@H](O[C@@H]2O[C@H](C)[C@@H](O)[C@H](N)[C@@H]2O)C[C@@H]2O[C@](O)(C[C@@H](O)C[C@@H](O)[C@H](O)CC[C@@H](O)C[C@@H](O)CC(=O)O[C@H]1C)C[C@H](O)[C@H]2C(=O)O [AMPHOTERICIN B] | 7.10 | 321 | 7.05 | 286 |  |  |  |  |  | 4.59 | 7.05 | 286 |
| Cl.Clc1ccc(Nc2cc3nc4ccccc4n(-c4ccc(Cl)cc4)c-3c/c2=N/CCC23CCCN2CCC3)cc1 | 6.52 | 3.3 | 6.27 | 1.8 | 6.72 | 5.2 | 6.35 | 2.4 | 2.2 | 6.01 |  |  |
| CC(C)/N=c1\cc2n(-c3ccc(Cl)cc3)c3ccccc3nc-2cc1Nc1ccc(Cl)cc1 [CLOFAZIMINE] | 5.35 | 4.2 | 5.53 | 6.3 | 5.32 | 3.9 | 5.15 | 1.5 | 2.6 | 4.73 |  |  |
| c1ccc(Nc2cc3nc4ccccc4n(-c4ccccc4)c-3c/c2=N/CC[C@@H]2CCCN3CCCC[C@H]23)cc1 |  |  |  |  | 6.74 |  | 6.57 | 1.5 |  |  |  |  |
